Experimental data published in PMC5724825, “Structure-activity studies of Mdm2/Mdm4-binding stapled peptides comprising non-natural amino acids” (PLoS ONE, 2017).
One block for each molecule: values may come before it. Bridge positions count the residues as written; N and C are the ends. Square brackets hold non-standard residues; d marks the D form. Trp(6-Cl) = N[C@@H](Cc1c[nH]c2cc(Cl)ccc12)C(=O)O; Trp(6-Me) = Cc1ccc2c(C[C@H](N)C(=O)O)c[nH]c2c1; S8 = C=CCCCCCC[C@](C)(N)C(=O)O; S5 = C=CCCC[C@](C)(N)C(=O)O; FAM = carboxyfluorescein

Experiments:
Mdm2 (amino acids 6–125) [1] = target: T1, Mdm2 (amino acids 6–125) (Homo sapiens, UniProt Q00987); test: Competitive fluorescence anisotropy, Mdm2; type: binding; set-up: Mdm2 (amino acids 6–125) was cloned as a GST-fusion protein; GST (N, cleaved yes); made in house; host or cells: Escherichia coli BL21(DE3) pLysS; conditions: from Table 2
Mdm4 (amino acids 1–108) [2] = target: T2, Mdm4 (amino acids 1–108) (Homo sapiens, UniProt O15151); test: Competitive fluorescence anisotropy, Mdm4; type: binding; conditions: from Table 2
T2 construct: Mdm4 and Mdm4-L98V (amino acids 1–108) were cloned with C-terminal 6xHIS tags; made in house; host or cells: Escherichia coli BL21(DE3)
T2 sequence (O15151 1-108): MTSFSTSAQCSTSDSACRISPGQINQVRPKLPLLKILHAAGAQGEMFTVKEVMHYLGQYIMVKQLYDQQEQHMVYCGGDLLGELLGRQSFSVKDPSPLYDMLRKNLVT
Experimental: (§1) Mdm4 and Mdm4-L98V (amino acids 1–108) were cloned with C-terminal 6xHIS tags. The constructs were then transformed into Escherichia coli BL21(DE3) (Invitrogen) competent cells. Cells were grown in LB medium at 37°C and induced at OD600 nm of 0.6 at 25°C with 0.25 mM IPTG and at 16°C with 1 mM IPTG for Mdm4-WT and Mdm4-L98V respectively. After overnight induction, the cells were harvested by centrifugation, resuspended in His-binding buffer (50 mM Bis-Tris pH 6.5, 1M NaCl, 20 mM imidazole, 0.5 mM DTT), and lysed by sonication. After centrifugation for 60 mins at 19,000 × g at 4°C, the cell lysate was then applied to a 1 mL HisTrap FF column (GE Healthcare) pre-equilibrated in His-binding buffer, washed and eluted off the column with His-elution buffer (50 mM Bis-Tris pH 6.5, 1M NaCl, 500 mM imidazole, 0.5 mM DTT) with a gradient elution of 35% elution buffer in 5 column volumes, followed by 35% to 100% elution buffer over 80 column volumes. Protein purity as assessed by SDS-PAGE was ~ 90%, and the fractions were pooled and buffer exchanged into 50 mM Bis-Tris pH 6.5, 350 mM NaCl, 1 mM DTT. The proteins were then concentrated using Amicon-Ultra (3 kDa MWCO) concentrator (Millipore).
(§2) Fluorescence anisotropy assays were performed as previously described. Titrations of purified Mdm2/Mdm4 proteins were incubated with 50 nM of carboxyfluorescein (FAM) labelled 12–1 peptide (FAM-[…]-NH2) to initially determine the dissociation constants for the peptide-protein interactions. Apparent Kds of peptides were next determined by competitive fluorescence anisotropy. Titrations of peptides were carried out at constant concentrations of Mdm2/Mdm2-M62A/Mdm4 (150 nM), Mdm4-L98V (250 nM) and labelled peptide (50 nM). Anisotropy measurements were carried out using the Envision Multilabel Reader (PerkinElmer). All experiments were carried out in PBS (2.7 mM KCl, 137 mM NaCl, 10 mM Na2HPO4 and 2 mM KH2PO4, pH 7.4), 4% DMSO and 0.1% Tween-20 buffer. All titrations were carried out in duplicate (3–6 repeats). Curve fitting was carried out using Prism (GraphPad).

[3] = tested on: activation of the p53 tumour suppressor; conditions: earlier series; cited from earlier work
Excerpt: We have previously described a series of peptide antagonists targeting Mdm2, a key regulator of p53 function. In common with all reported high-affinity binders, these peptides incorporate a signature p53-derived interacting motif comprising F, W and L residues that respectively dock into discrete hydrophobic pockets in the N-terminal domain of Mdm2 [13]. This series exemplified significant enhancements in binding affinity, cellular uptake and activity arising from incorporation of a hydrocarbon tether and replacement of the tryptophan with the non-natural L-6-chlorotryptophan. The ...

[4] = target: T3, Mdm4-L98V (amino acids 1–108) (Homo sapiens, UniProt O15151, L98V); test: Competitive fluorescence anisotropy, Mdm4-L98V; type: binding; conditions: from Table 2
T3 construct: Mdm4 and Mdm4-L98V (amino acids 1–108) were cloned with C-terminal 6xHIS tags; made in house; host or cells: Escherichia coli BL21(DE3)
T3 sequence (O15151 1-108 L98V): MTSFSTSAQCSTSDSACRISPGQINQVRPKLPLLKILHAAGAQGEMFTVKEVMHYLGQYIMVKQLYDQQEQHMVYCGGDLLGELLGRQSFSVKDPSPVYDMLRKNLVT
Experimental: as §1, §2

Mdm2 (amino acids 6–125) [5] = target: T1, Mdm2 (amino acids 6–125); set-up: Mdm2 (amino acids 6–125) was cloned as a GST-fusion protein; GST (N, cleaved yes); made in house; host or cells: Escherichia coli BL21(DE3) pLysS; conditions: earlier series; cited from earlier work
Excerpt: In common with all reported high-affinity binders, these peptides incorporate a signature p53-derived interacting motif comprising F, W and L residues that respectively dock into discrete hydrophobic pockets in the N-terminal domain of Mdm2 [13]. […] The ...

[6] = tested on: p53 transactivation in T22 cells; test: p53 reporter assay in T22 cells (β galactosidase); type: cell-based; conditions: 5, 10, 20 μM peptide, 18 hours, DMEM with 10% FBS
Experimental: Dulbecco’s Minimal Eagle Medium (DMEM) with 10% fetal bovine serum (FBS) and penicillin/streptomycin was used to maintain cells. T22 cells stably transfected with a p53 responsive β galactosidase reporter, were seeded into 96-well plates (8000 cells per well). 24 hours later, cells were treated with compounds/peptide for 18 hours in DMEM with 10% FBS. β galactosidase activity was measured using the FluoReporter LacZ/Galactosidase Quantitation kit (Invitrogen). Measurements were carried out on a Safire II multiplate reader (TECAN). All experiments were carried out in duplicate.
Fig 4 T22 reporter assay measuring p53 transactivation. A. Cells were treated with increasing concentrations (5, 10, 20 μM) of indicated peptide ligands and p53 activity determined by measuring β galactosidase levels. The small molecule Mdm2 inhibitor Nutlin (10 μM) was used as positive control. Activity is expressed as fold increase over cells treated with DMSO vehicle only. Values represent average ± SD (n = 2). * p < 0.001 compared to DMSO control. B. Lactate dehydrogenase release assay indicating no significant membrane disruption observed for increasing concentrations (2, 10, 20 μM) of indicated ligands compared to vehicle (DMSO) and positive maximum lysis control (MLC). Values represent average ± SD (n = 3).

[7] = target: T4, Mdm4-L98V (amino acids 1–108) (UniProt O15151 1-108, L98V); test: fluorescence polarisation; competitive fluorescence anisotropy, apparent Kd; peptides titrated at constant Mdm2/Mdm2-M62A/Mdm4 (150 nM) or Mdm4-L98V (250 nM) and FAM-labelled 12-1 peptide (50 nM); PBS pH 7.4, 4% DMSO, 0.1% Tween-20; conditions: both partners purified
T4 construct: Mdm4 (also known as MdmX), amino acids 1-108, with L98V; also called L98V mutant; source: E. coli BL21(DE3), purified (HisTrap FF)
T4 sequence (looked up): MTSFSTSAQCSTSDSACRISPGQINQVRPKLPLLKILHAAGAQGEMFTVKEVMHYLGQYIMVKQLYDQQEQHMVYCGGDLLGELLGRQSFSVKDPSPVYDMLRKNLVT

Mdm4 (amino acids 1–108) [8] = target: T5, Mdm4 (amino acids 1–108) (UniProt O15151 1-108); test: as above; conditions: both partners purified
T5 construct: Mdm4 (also known as MdmX), amino acids 1-108; also called Mdm4-WT; MdmX; source: E. coli BL21(DE3), purified (HisTrap FF)
T5 sequence (looked up): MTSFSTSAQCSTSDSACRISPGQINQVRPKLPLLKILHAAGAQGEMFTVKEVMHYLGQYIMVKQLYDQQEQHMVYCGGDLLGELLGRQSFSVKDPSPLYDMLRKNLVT

[9] = target: T4, Mdm4-L98V (amino acids 1–108); test: as above; conditions: both partners purified; remark: listed apart in the source
Mdm4 (amino acids 1–108) [10] = target: T5, Mdm4 (amino acids 1–108); test: as above; conditions: both partners purified; remark: listed apart in the source
Mdm2 (amino acids 6–125) [11] = target: T6, Mdm2 (amino acids 6–125) (UniProt Q00987 6-125); test: as above; conditions: both partners purified
T6 construct: Cloned in pGEX-6P-1; also called Mdm2 N-terminal domain; source: E. coli BL21(DE3) pLysS, purified (GSTrap, on-column PreScission cleavage, Resource S cation exchange)

[12] = target: T7, Mdm2-M62A (amino acids 6–125) (UniProt Q00987 6-125, M62A); test: as above; conditions: both partners purified
T7 construct: Cloned in pGEX-6P-1; source: E. coli BL21(DE3) pLysS, purified (GSTrap, on-column PreScission cleavage, Resource S cation exchange)

Molecule: C=CCCCCCC[C@@](C)(NC(=O)[C@H](Cc1ccccc1)NC(=O)[C@H](CO)NC(=O)[C@@H](NC(C)=O)[C@@H](C)O)C(=O)N[C@@H](CCC(=O)O)C(=O)N[C@@H](Cc1ccc(O)cc1)C(=O)N[C@@H](Cc1c[nH]c2cc(Cl)ccc12)C(=O)N[C@@H](C)C(=O)N[C@@H](CC(C)C)C(=O)N[C@@H](CC(C)C)C(=O)N[C@@](C)(CCCC=C)C(N)=O [M011-L]
Reduced binding to Mdm2 of pre-stapled peptide compared to M011 (Mdm2 (amino acids 6–125) [1]): ~ 20 fold | Reduced binding to Mdm4 of pre-stapled peptide compared to M011 (Mdm4 (amino acids 1–108) [2]): ~ 4 fold

Molecule: Ac-TSF[S5]EY[Trp(6-Cl)]ALL[S8]-NH2 (bridges not given here) [M011-L, linear precursor of M011]
Kd [7]: 594 nM | Kd (Mdm4 (amino acids 1–108) [8]): 1390 nM

Molecule: Ac-TSF[S5]EY[Trp(6-Me)]ALL[S8]-NH2 (staple 4-11; also: Trp(6-Me) D/L mixture, not separated) [M012 stapled peptide]
Kd [7]: 385 nM

Molecule: Ac-TSF[S5]EY[Trp(6-Me)]ALL[S8]-NH2 (bridges not given here; also: Trp(6-Me) not enantiomerically pure) [M012-L, linear precursor of M012]
Kd [7]: 165 nM | Kd (Mdm4 (amino acids 1–108) [8]): 411 nM

B1: carboxyfluorescein (FAM) labelled 12–1 peptide (peptide)
peptide: {FAM}-RFMDYWEGL-NH2
notes: 12-1 peptide, tracer of the fluorescence anisotropy assays; also called labelled peptide; source: synthetic peptide
binding result [9]: binds | binding result (Mdm4 (amino acids 1–108) [10]): binds | binding result (Mdm2 (amino acids 6–125) [11]): binds | binding result [12]: binds

B2: PM2 stapled peptide (peptide)
chain: TSFXEYWALLL
modifications: not fully specified; N-terminus acetylated; C-terminus amidated; (S)-2-(4′pentenyl) alanine at position 4 and (S)-2-(7′-octenyl) alanine at position 11, fused via olefin metathesis (i, i+7 hydrocarbon linkage)
Kd [7]: 72.3 nM | Kd (Mdm4 (amino acids 1–108) [8]): 101 nM

B3: M011 stapled peptide (peptide)
chain: TSFXEYWALLL
modifications: not fully specified; N-terminus acetylated; C-terminus amidated; L-6-chlorotryptophan at W23 (p53 numbering); (S)-2-(4′pentenyl) alanine at position 4 and (S)-2-(7′-octenyl) alanine at position 11, fused via olefin metathesis (i, i+7 hydrocarbon linkage)
Kd [7]: 72.3 nM | Kd (Mdm4 (amino acids 1–108) [8]): 335 nM

Further lines, with some results ahead:

Increased Mdm2 binding affinity over parental stapled peptide lacking the 6-chloro modification (PM2) (Mdm2 (amino acids 6–125) [1]): ~ 8 fold | Binding to Mdm2 over Mdm4 (affinity for Mdm4 reduced compared to Mdm2) (Mdm4 (amino acids 1–108) [2]): ~ 50 fold | Reduced binding to Mdm4 compared to PM2 (Mdm4 (amino acids 1–108) [2]): ~ 3 fold | Increase in binding affinity to Mdm4-L98V over binding to Mdm4 [4]: ~ 4.6 fold
Molecule: CC(=O)N[C@H](C(=O)N[C@@H](CO)C(=O)N[C@@H](Cc1ccccc1)C(=O)N[C@]1(C)CCCCCCC=CCCC[C@@](C)(C(N)=O)NC(=O)[C@H](CC(C)C)NC(=O)[C@H](CC(C)C)NC(=O)[C@H](C)NC(=O)[C@H](Cc2c[nH]c3cc(Cl)ccc23)NC(=O)[C@H](Cc2ccc(O)cc2)NC(=O)[C@H](CCC(=O)O)NC1=O)[C@@H](C)O [M011]
Enhanced cellular activity over the parental peptide [3]: ~ 59 fold | Increase in Mdm2 binding affinity over the parental peptide (Mdm2 (amino acids 6–125) [5]): ~ 7 fold | More active than M012 in T22 p53 reporter assay [6]: ~ 20%

Change in affinity for Mdm2 versus M011 (Mdm2 (amino acids 6–125) [1]): no change in affinity for Mdm2 | Improved binding to Mdm4 versus M011 (Mdm4 (amino acids 1–108) [2]): ~ 1.7 fold | Increase in binding affinity to Mdm4-L98V over binding to Mdm4 [4]: ~ 2.5 fold
Molecule: CC(=O)N[C@H](C(=O)N[C@@H](CO)C(=O)N[C@@H](Cc1ccccc1)C(=O)N[C@]1(C)CCCCCCC=CCCC[C@@](C)(C(=O)N[C@@H](CO)C(=O)N[C@@H](C)C(=O)N[C@@H](C)C(N)=O)NC(=O)[C@H](CC(C)C)NC(=O)[C@H](CC(C)C)NC(=O)[C@H](C)NC(=O)[C@H](Cc2c[nH]c3cc(Cl)ccc23)NC(=O)[C@H](Cc2ccc(O)cc2)NC(=O)[C@H](CCC(=O)O)NC1=O)[C@@H](C)O [VIP160]

Increase in binding affinity to Mdm4-L98V over binding to Mdm4 [4]: ~ 1.4 fold
Molecule: CC(=O)N[C@H](C(=O)N[C@@H](CO)C(=O)N[C@@H](Cc1ccccc1)C(=O)N[C@]1(C)CCCCCCC=CCCC[C@@](C)(C(N)=O)NC(=O)[C@H](CC(C)C)NC(=O)[C@H](CC(C)C)NC(=O)[C@H](C)NC(=O)[C@H](Cc2c[nH]c3ccccc23)NC(=O)[C@H](Cc2ccc(O)cc2)NC(=O)[C@H](CCC(=O)O)NC1=O)[C@@H](C)O [PM2]
